From patent publication US9359301B2, “Ethynyl derivatives” (Hoffmann-La Roche Inc., priority 2012, dated 2016) come the findings set out here.

Experiment [1] addresses T1, human mGlu5a receptor (Homo sapiens (Human), UniProt P41594). In words: Intracellular Ca2+ mobilization assay (mGlu5 PAM assay). It is filed as cell-based. The following applies: for mGlu5 PAM EC50: HEK-293 cells, human mGlu5a, L-glutamate at EC20; for Activity profile: PAM = positive, NAM = negative allosteric modulator of mGlu5; for EC50 mGlu5 PAM assay: comparison table; for Efficacy: maximal response in % of maximal stimulatory effect of saturating L-glutamate. How it is done:
A monoclonal HEK-293 cell line stably transfected with a cDNA encoding for the human mGlu5a receptor was generated; for the work with mGlu5 Positive Allosteric Modulators (PAMs), a cell line with low receptor expression levels and low constitutive receptor activity was selected to allow the differentiation of agonistic versus PAM activity. Cells were cultured according to standard protocols (Freshney, 2000) in Dulbecco's Modified Eagle Medium with high glucose supplemented with 1 mM glutamine, 10% (vol/vol) heat-inactivated bovine calf serum, Penicillin/Streptomycin, 50 μg/ml hygromycin and 15 μg/ml blasticidin (all cell culture reagents and antibiotics from Invitrogen, Basel, Switzerland).
About 24 hrs before an experiment, 5×10^4 cells/well were seeded in poly-D-lysine coated, black/clear-bottomed 96-well plates. The cells were loaded with 2.5 μM Fluo-4AM in loading buffer (1×HBSS, 20 mM HEPES) for 1 hr at 37° C. and washed five times with loading buffer. The cells were transferred into a Functional Drug Screening System 7000 (Hamamatsu, Paris, France), and 11 half logarithmic serial dilutions of test compound at 37° C. were added and the cells were incubated for 10-30 min. with on-line recording of fluorescence. Following this pre-incubation step, the agonist L-glutamate was added to the cells at a concentration corresponding to EC20 (typically around 80 μM) with on-line recording of fluorescence; in order to account for day-to-day variations in the responsiveness of cells, the EC20 of glutamate was determined immediately ahead of each experiment by recording of a full dose-response curve of glutamate.
Responses were measured as peak increase in fluorescence minus basal (i.e. fluorescence without addition of L-glutamate), normalized to the maximal stimulatory effect obtained with saturating concentrations of L-glutamate. Graphs were plotted with the % maximal stimulatory using XLfit, a curve fitting program that iteratively plots the data using Levenburg Marquardt algorithm. The single site competition analysis equation used was y=A+((B−A)/(1+((x/C)D))), where y is the % maximal stimulatory effect, A is the minimum y, B is the maximum y, C is the EC50, x is the log 10 of the concentration of the competing compound and D is the slope of the curve (the Hill Coefficient). From these curves the EC50 (concentration at which half maximal stimulation was achieved), the Hill coefficient as well as the maximal response in % of the maximal stimulatory effect obtained with saturating concentrations of L-glutamate were calculated.
A depression of the signal observed after addition of the EC20 concentration of L-glutamate was indicative of an inhibitory activity of the test compound.
For orientation: Calcium flux is commonly read through the fluorescence of an indicator in the cells.

For experiment [2], the target named is T1, human mGlu5a receptor. The experiment can be described thus: MPEP binding assay ([3H]MPEP displacement). The following applies: for EC50: [3H]MPEP 2 nM, EBNA cell membranes, 1 h at 4° C., read-out: mGlu5-MPEP binding EC50; for Ki: comparison table. As to the method: For binding experiments, cDNA encoding human mGlu 5a receptor was transiently transfected into EBNA cells using a procedure described by Schlaeger and Christensen [Cytotechnology 15:1-13 (1998)]. Cell membrane homogenates were stored at −80° C. until the day of assay where upon they were thawed and resuspended and polytronised in 15 mM Tris-HCl, 120 mM NaCl, 100 mM KCl, 25 mM CaCl2, 25 mM MgCl2 binding buffer at pH 7.4 to a final assay concentration of 20 μg protein/well.
Saturation isotherms were determined by addition of twelve [^3H]MPEP concentrations (0.04-100 nM) to these membranes (in a total volume of 200 μl) for 1 h at 4° C. Competition experiments were performed with a fixed concentration of [^3H]MPEP (2 nM) and IC50 values of test compounds evaluated using 11 concentrations (0.3-10,000 nM). Incubations were performed for 1 h at 4° C.
At the end of the incubation, membranes were filtered onto unifilter (96-well white microplate with bonded GF/C filter preincubated 1 h in 0.1% PEI in wash buffer, Packard BioScience, Meriden, Conn.) with a Filtermate 96 harvester (Packard BioScience) and washed 3 times with cold 50 mM Tris-HCl, pH 7.4 buffer. Nonspecific binding was measured in the presence of 10 μM MPEP. The radioactivity on the filter was counted (3 min) on a Packard Top-count microplate scintillation counter with quenching correction after addition of 45 μl of microscint 40 (Canberra Packard S. A., Zürich, Switzerland) and shaking for 20 min.

T1 sequence (P41594 other isoform, or with tags, fused parts or gaps): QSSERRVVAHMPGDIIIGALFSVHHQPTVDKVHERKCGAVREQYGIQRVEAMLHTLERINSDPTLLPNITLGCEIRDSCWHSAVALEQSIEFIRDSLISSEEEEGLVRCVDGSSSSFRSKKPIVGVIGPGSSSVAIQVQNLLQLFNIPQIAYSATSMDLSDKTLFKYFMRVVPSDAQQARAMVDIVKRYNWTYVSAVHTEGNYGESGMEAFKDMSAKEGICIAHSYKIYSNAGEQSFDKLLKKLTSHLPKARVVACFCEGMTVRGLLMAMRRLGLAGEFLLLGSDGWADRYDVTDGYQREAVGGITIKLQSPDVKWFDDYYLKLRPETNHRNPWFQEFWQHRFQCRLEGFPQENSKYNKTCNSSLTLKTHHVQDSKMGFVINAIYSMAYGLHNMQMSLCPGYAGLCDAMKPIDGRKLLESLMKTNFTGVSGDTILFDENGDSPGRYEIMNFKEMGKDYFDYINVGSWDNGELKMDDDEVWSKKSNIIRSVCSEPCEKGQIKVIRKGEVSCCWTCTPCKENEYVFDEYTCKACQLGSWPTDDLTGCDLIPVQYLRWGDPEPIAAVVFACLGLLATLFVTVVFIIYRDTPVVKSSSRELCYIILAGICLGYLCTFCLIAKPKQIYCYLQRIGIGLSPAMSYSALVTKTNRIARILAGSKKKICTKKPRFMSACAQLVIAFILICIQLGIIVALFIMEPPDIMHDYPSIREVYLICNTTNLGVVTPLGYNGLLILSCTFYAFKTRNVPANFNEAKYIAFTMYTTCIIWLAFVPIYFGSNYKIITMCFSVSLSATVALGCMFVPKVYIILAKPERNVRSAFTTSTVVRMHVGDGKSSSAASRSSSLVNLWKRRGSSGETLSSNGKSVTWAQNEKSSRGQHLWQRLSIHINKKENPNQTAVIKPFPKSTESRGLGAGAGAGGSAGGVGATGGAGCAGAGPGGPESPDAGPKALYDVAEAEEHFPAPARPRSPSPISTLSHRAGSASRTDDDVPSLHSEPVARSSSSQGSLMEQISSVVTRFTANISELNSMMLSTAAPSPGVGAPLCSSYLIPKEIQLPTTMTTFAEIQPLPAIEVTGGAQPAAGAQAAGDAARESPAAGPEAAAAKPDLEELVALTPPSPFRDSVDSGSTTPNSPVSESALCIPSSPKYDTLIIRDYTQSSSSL

The EC50 is the concentration giving half of the maximal effect. One may read the Ki as the dissociation constant of the complex between target and ligand, obtained from inhibition or displacement. Regarding `CCN(C(=O)c1ncc(C#Cc2cccc(F)c2)cn1)C(C)(C)C` [Example 3, 5-(3-Fluoro-phenylethynyl)-pyrimidine-2-carboxylic acid tert-butyl-ethyl-amide], on human mGlu5a receptor [1], the “mGlu5 PAM EC50” value was “in- active”, the Activity profile result was “NAM” and the “EC50 mGlu5 PAM assay” value is “inactive”. Also, at human mGlu5a receptor [2], the EC50 is 94 nM and the Ki amounted to 94 nM.
`CN(C(=O)c1ncc(C#Cc2cccc(F)c2)cn1)C(C)(C)C` [Reference compound 2, reference compound]: on human mGlu5a receptor [1], the Activity profile result is reported as “PAM” and the Efficacy was determined as 55%. In addition, at human mGlu5a receptor [2], the EC50 is 51 nM and the Ki came out at 51 nM.
As for `CCN(C(=O)c1ccc(C#Cc2cccc(Cl)c2)cn1)C(C)(C)C` [Example 2, 5-(3-Chloro-phenylethynyl)-pyridine-2-carboxylic acid tert-butyl-ethyl-amide], at human mGlu5a receptor [1], the “mGlu5 PAM EC50” value is “in- active”, the Activity profile entry is “NAM” and the “EC50 mGlu5 PAM assay” value is “inactive”. In addition, at human mGlu5a receptor [2], the concentration giving a half-maximal response (EC50) came to 24 nM and the Ki amounted to 24 nM.
`CCN(C(=O)c1ncc(C#Cc2cccc(Cl)c2)cn1)C(C)(C)C` [Example 4, 5-(3-Chloro-phenylethynyl)-pyrimidine-2-carboxylic acid tert-butyl-ethyl-amide]: on human mGlu5a receptor [1], the “mGlu5 PAM EC50” value is given as “in- active”, the Activity profile entry is recorded as “NAM” and the “EC50 mGlu5 PAM assay” value is “inactive”. Moreover, on human mGlu5a receptor [2], the EC50 worked out at 46 nM and the Ki is 46 nM.
Consider `CCN(C(=O)c1ccc(C#Cc2cccc(F)c2)cn1)C(C)(C)C` [Example 1, 5-(3-Fluoro-phenylethynyl)-pyridine-2-carboxylic acid tert-butyl-ethyl-amide], for which, at human mGlu5a receptor [1], the “mGlu5 PAM EC50” value is given as “in- active”, the Activity profile result is given as “NAM” and the “EC50 mGlu5 PAM assay” value is “inactive”. Further, at human mGlu5a receptor [2], the EC50 stood at 42 nM and the Ki was found to be 42 nM.
Consider `CN(C(=O)c1ccc(C#Cc2cccc(F)c2)cn1)C(C)(C)C` [Reference compound 1, reference compound], for which, on human mGlu5a receptor [1], the Activity profile result is recorded as “PAM” and the Efficacy was found to be 64%. Besides, the concentration for a half-maximal effect (EC50) on human mGlu5a receptor [2] is 29 nM.
